According to patent US10065948B2, “Histone deacetylase inhibitors and compositions and methods of use thereof” (CHDI Foundation, Inc., priority 2014, dated 2018):

Assays:
[1] = system: cellular histone deacetylase activity (Lys-Ac); test: Inhibition of cellular HDAC activity (Cell Lys-Ac); assay type: cell-based; conditions: Lys-Ac substrate
[2] = system: cellular histone deacetylase enzymatic activity in Jurkat E6-1 cells; test: Inhibition of cellular HDAC activity, Boc-Lys(Tfa)-AMC substrate (Cell Lys-TFA); assay type: cell-based
Method: The potency of the compounds is quantified by measuring the cellular histone deacetylase enzymatic activity using the fluorogenic substrate, Boc-Lys(Tfa)-AMC. After penetration in Jurkat E6-1 cells, the substrate is deacetylated to Boc-Lys-AMC. After cell lysis and cleavage by trypsin, the fluorophore AMC is released from the deacetylated substrate only. The fluorescence of the sample is directly related to the histone deacetylase activity in the sample.
Jurkat E6.1 cells are cultured according to standard cell culture protocols in Jurkat E6.1 Growth Media (RPMI without phenol red, 10% FBS, 10 mM HEPES, and 1 mM Sodium Pyruvate). Jurkat E6.1 cells are counted using a Coulter Counter and resuspended in Jurkat E6.1 growth media at a concentration of 75,000 cells/35 μL. 35 μL or 75,000 cells is seeded into Greiner microtitre assay plates. The plates are then incubated at 37° C. and 5% CO2 while other assay components are being prepared.
Stocks of 70 μL aliquots of the 10 mM compound in DMSO are prepared and stored at −20° C. From one stock aliquot of each compound to be tested and the reference compound, a 16-point serial dilution is prepared according to Table 1 using a 125 μL 16-channel Matrix multi-channel pipette.
2 μL (200×) of each diluted solution and each control (full activity: 100% DMSO alone or full inhibition 1 mM) is stamped into V-bottom polypropylene 384-well compound plates using either the Bravo, Janus, or 12.5 μL 16-channel Matrix multi-channel pipette. Each well with the 200× compound solution is diluted 1:20 by the addition of 38 μL Jurkat assay buffer+DMSO (9.5% DMSO, RPMI without phenol red, 0.09% FBS, 9 mM Hepes, and 0.9 mM Sodium Pyruvate equilibrated to room temperature)
5× (500 μM) substrate is prepared just prior to the addition to the assay. The 5× substrate is prepared by diluting a 100 mM Boc-Lys(Tfa)-AMC in DMSO solution 1:200 by adding it drop-wise to Jurkat assay medium (RPMI without phenol red, 0.1% FBS, 10 mM Hepes, and 1 mM Sodium Pyruvate equilibrated to 37° C.) while vortexing at slow speed to prevent precipitation.
10 mL of 3× lysis buffer is prepared with 8.8 ml of 3× stock lysis buffer (50 mM Tris-HCl, pH 8.0, 137 mM NaCl, 2.7 mM KCl, 1 mM MgCl2, 1% Nonidet P40 Substitute equilibrated to room temperature) and 1.2 mL of 3 mg/mL Trypsin equilibrated to room temperature.
5 μL of each solution of 1:20 diluted compound from above is transferred to the Greiner microtitre assay plates with 75,000 cells/well using the Bravo. Cells are then incubated for 2 hours at 37° C. and 5% CO2. […] The cells are then incubated for 3 hours at 37° C. and 5% CO2. Next, 25 μL of 3× lysis buffer is added to each well using either the 125 μL 16 channel pipette or the Bravo. The assay plate is then incubated overnight (15-16 hours) at 37° C. and 5% CO2. The following day, the plates are shaken on an orbital shaker for 1 minute at 900 rpm. Finally the top read fluorescence (Excitation: 355 nm, Emission: 460 nm) is measured using PerkinElmer EnVision.

[3] = Homo sapiens, Jurkat E6.1, Lys-TFA substrate

IC50 [1] [nM] | IC50 ([2]; Lys-TFA substrate) [nM] | IC50 [2, 3] [nM] | Compound
> 50000 | 410 |  | Cc1c(F)cccc1C1(C(=O)NO)CCc2nn(-c3ccccc3F)cc2C1 (single isomer, unassigned) [Example 33, E1-(abs)-5-(3-Fluoro-2-methylphenyl)-2-(2-fluorophenyl)-N-hydroxy-4,5,6,7-tetrahydro-2H-indazole-5-carboxamide]
> 50000 | 26700 |  | Cc1c(F)cccc1C1(C(=O)NO)CCc2nn(-c3ccccc3F)cc2C1 (single isomer, unassigned) [Example 34, E2-(abs)-5-(3-fluoro-2-methylphenyl)-2-(2-fluorophenyl)-N-hydroxy-4,5,6,7-tetrahydro-2H-indazole-5-carboxamide]
> 50000 | 86 |  | Cc1ccccc1-n1ncc2c1CCC(C(=O)NO)(c1cccc(F)c1C)C2 (single isomer, unassigned) [Example 37, E1-(abs)-5-(3-Fluoro-2-methylphenyl)-N-hydroxy-1-(o-tolyl)-4,5,6,7-tetrahydro-1H-indazole-5-carboxamide]
> 50000 | 11200 |  | Cc1ccccc1-n1ncc2c1CCC(C(=O)NO)(c1cccc(F)c1C)C2 (single isomer, unassigned) [Example 38, E2-(abs)-5-(3-fluoro-2-methylphenyl)-N-hydroxy-1-(o-tolyl)-4,5,6,7-tetrahydro-1H-indazole-5-carboxamide]
> 50000 |  | > 50000 | Cc1c(F)cccc1[C@@]1(C(=O)NO)CCc2nc(C3CC3)ncc21 (single isomer, unassigned) [Example 57]
> 50000 |  | 110 | Cc1c(F)cccc1C1(C(=O)NO)Cc2nc(-c3cccc(F)c3)sc2C1 (single isomer, unassigned) [Example 64, E1-(abs)-5-(3-Fluoro-2-methylphenyl)-2-(3-fluorophenyl)-N-hydroxy-5,6-dihydro-4H-cyclopenta[d]thiazole-5-carboxamide]
> 50000 |  |  | Cc1c(F)cccc1C1(C(=O)NO)Cc2nc(-c3cccc(F)c3)sc2C1 (single isomer, unassigned) [Example 65, E2-(abs)-5-(3-fluoro-2-methylphenyl)-2-(3-fluorophenyl)-N-hydroxy-5,6-dihydro-4H-cyclopenta[d]thiazole-5-carboxamide]
> 50000 |  | 14 | Cc1ccccc1-n1ncc2c1C[C@](C(=O)NO)(c1cccc(F)c1C)C2 [Example 2, (S)-5-(3-Fluoro-2-methylphenyl)-N-hydroxy-1-(o-tolyl)-1,4,5,6-tetrahydrocyclopenta[c]pyrazole-5-carboxamide]
> 50000 |  | 103 | Cc1c(F)cccc1[C@]1(C(=O)NO)Cc2cnn(-c3ccc(Cl)cc3)c2C1 [Example 8, (S)-1-(4-Chlorophenyl)-5-(3-fluoro-2-methylphenyl)-N-hydroxy-1,4,5,6-tetrahydrocyclopenta[c]pyrazole-5-carboxamide]
> 50000 |  | 27 | Cc1c(F)cccc1[C@]1(C(=O)NO)Cc2cnn(-c3c(F)cccc3F)c2C1 [Example 11, (S)-1-(2,6-Difluorophenyl)-5-(3-fluoro-2-methylphenyl)-N-hydroxy-1,4,5,6-tetrahydrocyclopenta[c]pyrazole-5-carboxamide]
> 50000 |  | 11 | Cc1cc(F)ccc1-n1ncc2c1C[C@](C(=O)NO)(c1cccc(F)c1C)C2 [Example 22, (S)-5-(3-Fluoro-2-methylphenyl)-1-(4-fluoro-2-methylphenyl)-N-hydroxy-1,4,5,6-tetrahydrocyclopenta[c]pyrazole-5-carboxamide]
> 50000 |  | 134 | Cc1cc(F)ccc1-n1cc2c(n1)C[C@](C(=O)NO)(c1cccc(F)c1C)C2 [Example 23, (S)-5-(3-fluoro-2-methylphenyl)-2-(4-fluoro-2-methylphenyl)-N-hydroxy-2,4,5,6-tetrahydrocyclopenta[c]pyrazole-5-carboxamide]
> 50000 |  | 120 | Cc1c(F)cccc1[C@@]1(C(=O)NO)Cc2cnc(C3CC3)nc2C1 [Example 50, (R)-2-Cyclopropyl-6-(3-fluoro-2-methylphenyl)-N-hydroxy-6,7-dihydro-5H-cyclopenta[d]pyrimidine-6-carboxamide]
> 50000 |  | 1400 | Cc1c(F)cccc1[C@@]1(C(=O)NO)CCc2nc(C3CC3)ncc21 [Example 51, (S)-2-cyclopropyl-5-(3-fluoro-2-methylphenyl)-N-hydroxy-6,7-dihydro-5H-cyclopenta[d]pyrimidine-5-carboxamide]
> 50000 |  | 210 | Cc1c(F)cccc1[C@]1(C(=O)NO)Cc2cnc(C3CC3)nc2C1 [Example 52, (S)-2-Cyclopropyl-6-(3-fluoro-2-methylphenyl)-N-hydroxy-6,7-dihydro-5H-cyclopenta[d]pyrimidine-6-carboxamide]
> 50000 |  | 320 | Cc1c(F)cccc1[C@]1(C(=O)NO)CCc2c1cnn2-c1ccccc1 [Example 54, (R)-4-(3-Fluoro-2-methylphenyl)-N-hydroxy-1-phenyl-1,4,5,6-tetrahydrocyclopenta[c]pyrazole-4-carboxamide]
> 50000 |  | 260 | Cc1c(F)cccc1[C@]1(C(=O)NO)Cc2cnc(-c3ccc(F)cc3)nc2C1 [Example 55, (S)-6-(3-Fluoro-2-methylphenyl)-2-(4-fluorophenyl)-N-hydroxy-6,7-dihydro-5H-cyclopenta[d]pyrimidine-6-carboxamide]
> 50000 |  | 200 | Cc1c(F)cccc1[C@]1(C(=O)NO)Cc2cnc(-c3cccnc3)nc2C1 [Example 60, (S)-6-(3-Fluoro-2-methylphenyl)-N-hydroxy-2-(pyridin-3-yl)-6,7-dihydro-5H-cyclopenta[d]pyrimidine-6-carboxamide]
> 50000 |  | 98 | Cc1c(F)cccc1[C@@]1(C(=O)NO)Cc2nc(-c3ccc(F)cc3)sc2C1 [Example 66, (R)-5-(3-Fluoro-2-methylphenyl)-2-(4-fluorophenyl)-N-hydroxy-5,6-dihydro-4H-cyclopenta[d]thiazole-5-carboxamide]
> 50000 |  | 290 | Cc1c(F)cccc1[C@]1(C(=O)NO)Cc2nc(-c3ccc(F)cc3)sc2C1 [Example 67, (S)-5-(3-fluoro-2-methylphenyl)-2-(4-fluorophenyl)-N-hydroxy-5,6-dihydro-4H-cyclopenta[d]thiazole-5-carboxamide]
> 50000 |  | 790 | Cc1c(F)cccc1[C@]1(C(=O)NO)CCc2nc(C3CC3)sc21 [Example 72, (S)-2-Cyclopropyl-6-(3-fluoro-2-methylphenyl)-N-hydroxy-5,6-dihydro-4H-cyclopenta[d]thiazole-6-carboxamide]
> 50000 |  | 45 | Cc1c(F)cccc1[C@]1(C(=O)NO)Cc2snc(-c3ccccc3)c2C1 [Example 80, E1-(abs)-5-(3-Fluoro-2-methylphenyl)-N-hydroxy-3-phenyl-5,6-dihydro-4H-cyclopenta[d]isothiazole-5-carboxamide]
> 50000 |  | 5600 | Cc1c(F)cccc1[C@@]1(C(=O)NO)Cc2snc(-c3ccccc3)c2C1 [Example 81, E2-(abs)-5-(3-Fluoro-2-methylphenyl)-N-hydroxy-3-phenyl-5,6-dihydro-4H-cyclopenta[d]isothiazole-5-carboxamide]
> 50000 |  | 45700 | O=C(NO)[C@]1(c2ccccc2)CCc2ccccc21 [Example 87, E1-(abs)-N-Hydroxy-1-phenyl-2,3-dihydro-1H-indene-1-carboxamide]

Compound | IC50 [1] [nM] | IC50 ([2]; Lys-TFA substrate) [nM] | IC50 [2, 3] [nM]
Cc1c(F)cccc1C1(C(=O)NO)CCc2nn(CC(F)(F)F)cc2C1 (stereo not shown) [Example 35, 5-(3-Fluoro-2-methylphenyl)-N-hydroxy-1-(2,2,2-trifluoroethyl)-4,5,6,7-tetrahydro-1H-indazole-5-carboxamide and 5-(3-fluoro-2-methylphenyl)-N-hydroxy-2-(2,2,2-trifluoroethyl)-4,5,6,7-tetrahydro-2H-indazole-5-carboxamide] | > 50000 | 770 | 
